The text below walks through data of patent US12233145B2, “Ultra-violet absorbing compounds” (CIIMAR—CENTRO DE INVESTIGACAO MARINHA E AMBIENTAL, priority 2018, dated 2025).

The nature of series [1]: UV-Vis absorption of scytoneman-like compounds. In kind it is physicochemical. An excerpt:
The compounds were isolated from cyanobacteria collected from a small saltern pond located just behind the primary dune in Mrizika, Morocco (GPS coordinates: 32.955807, −8.779638). […] To explore the chemodiversity of the mat, the biomass was freeze-dried (650 g, d.w.) and extracted using a dichloromethane/methanol mixture (2:1). The crude extract was then fractionated by vacuum liquid chromatography using a solvent gradient with increasing polarity from 100% hexanes to 100% ethyl acetate and then to 100% MeOH. […] The filtered solution was subfractionated through flash chromatography using a gradient of hexanes, ethyl acetate to methanol.

For series [2], the system named is Staphylococcus aureus (ATCC 29213). Nature of the series: Antimicrobial assay, disc diffusion method. It is filed as cell-based. Conditions: final concentration of 15 μg mL^−1; S. aureus ATCC 29213. As to the method:
Kanamycin and ampicillin (15 μg) were used as positive controls.
The pure compounds were also tested in antimicrobial assays using the disc diffusion method. […] Apart from its sunscreen function, the previously known scytonemins have been associated with anticancer and antioxidative activity, but no antimicrobial activity has ever been reported for any of the scytoneman family of compounds until now.
(In agar diffusion tests the substance spreads into inoculated agar from a disc or well.)

For series [3], the system named is SY-SH5Y (neuroblastoma cell line). The series can be described thus: Cytotoxicity tests using the MTT assay. It is filed as cell-based. As to conditions: final concentration 10 μg mL^−1. The procedure: 1% DMSO (v/v) was used as negative control and 20% DMSO (v/v) as a positive control;
The pure compounds were also tested in cytotoxicity assays using the MTT assay.
For orientation: Tetrazolium dyes change colour on reduction, which living cells bring about.

Another series deals with cyanobacteria. Conditions: cited from earlier work.
Setting [4] is: Table 1, identification by LC-HRMS analysis.

As to 3,3′-dihydroxyscytonemin [585.2061], the Main absorbance regions result is recorded as “UVB” in series [1] (setting [4]) and “UVB” in series [1] (Table 2, UV-Vis spectra). In series [1] (maximum absorption wavelengths, UV-Vis spectra), the Max wavelength was 293 nm.

For the substance “3′-hydroxy-3-methoxyscytonemin [595.1864]”, the Main absorbance regions entry is on record as “Green/blue” in series [1] (setting [4]) and “Green/blue” in series [1] (Table 2, UV-Vis spectra).

For orientation: cell viability means a read-out of living cells in per cent, often relative to untreated cells. Read a high cell viability as less harm to the cells. Take 3′-hydroxyscytonemin: the antimicrobial activity result in series [2] is “presented antimicrobial activity”. The Main absorbance regions entry is given as “UVA” in series [1] (setting [4]) and “UVA” in series [1] (Table 2, UV-Vis spectra). Moreover, the cell viability was found to be 37.8% in series [3] (24 h of exposure) and 18.3% in series [3] (48 h of exposure).

Regarding scytonemin, in the series on cyanobacteria, the “reduction of the UV-A radiation that penetrates the cells” value is given as “up to 90%”.
